{
  "source": "patent US20250339531A1",
  "about": "“DUX4 POLYPEPTIDES AND NUCLEIC ACIDS FOR TREATING INFLAMMATORY AND AUTOIMMUNE CONDITIONS” (Fred Hutchinson Cancer Center, priority 2021, published 2025)",
  "tested_on": "polysome association of mRNAs",
  "assay": "Polysome profiling with RNA-seq",
  "format": "cell-based, human",
  "conditions": "DUX4 pulse+IFNG versus IFNG",
  "procedure": "Polysome profiling was performed using three 70% confluent 15 cm plates of MB135iDUX4 myoblasts per treatment condition (n=3). MB135iDUX4 myoblasts were pulsed with or without doxycycline for 4 hours, incubated for 48 hours, supplemented with 50 ng/mL IFNG for 16 hours, and harvested at a terminal time point of 68 hours. To harvest, culture medium was supplemented with 100 μg/mL cycloheximide (CHX; Sigma) and cells were incubated at 37° C. for 10 minutes. Media was aspirated and each 15 cm plate of adherent cells was rinsed with 25 mL ice-cold PBS supplemented with 100 μg/mL cycloheximide, lifted with 0.25% Trypsin-EDTA supplemented with CHX, and resuspended in growth media supplemented with CHX. Cells were pelleted at 300 RCF and washed twice with ice-cold PBS supplemented with CHX. Cell pellets were flash frozen in liquid nitrogen and stored at −80° C. Cells were lysed with Polysome Lysis Buffer (10 mM Tris pH 8, 140 mM NaCl, 7.5 mM MgCl2, 0.25% NP-40, 0.1% Triton X-100, 150 μg/mL CHX, 20 mM DTT, 640U/mL SUPERase-In RNase Inhibitor) and clarified before quantification with the Bio-Rad Protein Assay. 1.5 mg of clarified lysate was loaded onto a 10-50% sucrose gradient prepared in DEPC-treated water with 25 mM Tris pH 7.4, 25 mM NaCl, 5 mM MgCl2, 100 μg/mL heparin, and 2 mM DTT. Gradients were fractionated using a Biocomp Piston Gradient Fractionator. Samples were resuspended in Trizol and Drosophila S2 cells were added as an internal spike-in control. RNA was extracted using the Direct-zol RNA Miniprep Kit (Zymo Research). Relative mRNA abundance for each sample was normalized to Drosophila spike-in to account for differences in RNA extraction efficiency (Taruttis et al., 2017).\nTotal RNA was isolated using the NucleoSpin RNA kit (Machery-Nagel) or Direct-zol RNA Mini-Prep Kit (Zymo Research) according to manufacturer's instructions. RNA-seq libraries were prepared using the Illumina TruSeq RNA Sample Prep v2 Kit and sequenced using 50 bp paired-end sequencing on the Illumina NextSeq platform by the Fred Hutchinson Cancer Center Genomics Core.",
  "note": "Entries after “also recorded” stand apart in the source; their conditions may differ.",
  "data": [
    {"substance": "DUX4: human DUX4 protein SEQ ID NO:3 expressed from doxycycline inducible codon altered transgene SEQ ID NO:2", "values": [
      {"measurement": "mRNAs reduced in the high polysome fraction", "setting": "log 2FC<−1, p-adj<0.01", "value": 7765, "unit": "genes"},
      {"measurement": "polysome-bound mRNAs significantly upregulated", "setting": "log 2FC>1, p-adj<0.01", "value": 256},
      {"measurement": "genes with decreased polysome association (high/sub ratio)", "setting": "|log 2FC>1|, p-adj<0.01", "value": 5800, "unit": "genes"},
      {"measurement": "genes with increased polysome association (high/sub ratio)", "setting": "|log 2FC>1|, p-adj<0.01", "value": 323, "unit": "genes"},
      {"measurement": "polysome association of specific mRNAs", "setting": "high-to-sub polysome ratio", "value": "TOP mRNAs remain associated with polysomes; also recorded: HLA-A, HLA-B, and HLA-C mRNAs showed reduced polysome association; also recorded: PSMB8, PSMB9, and PSMB10 mRNAs remained associated with polysomes"}
    ]}
  ]
}
